In patent publication US5873359A, “Methods and devices for treating pulmonary vasoconstriction and asthma” (The General Hospital Corporation, priority 1994, dated 1999):
Like-named read-outs stand apart in the source and are kept apart here.

Test system: persistent pulmonary hypertension of the newborn (PPHN)
Type: in vivo, human
Method: First subject. Through compassionate use, nitric oxide was administered to an infant suffering from persistent pulmonary hypertension and congenital heart disease. As a result of prolonged ventilation, absence of a preductal arterial blood sampling site, and the existence of the atrial-ventricular (AV) canal, the patient was not included in the PPHN study mentioned above.
The patient was a 3225 gm, full term person who had been treated with extracorporeal membrane oxygenation (ECMO) because of the severity of their congenital heart disease and profound hypoxemia. They had been taken off ECMO and was being maintained intubated and ventilated in the newborn intensive care unit. They subsequently became progressively hypoxemic, as reflected in their post-ductal pulse oximetry (POX) values. By the time they were taken to the catheterization laboratory to confirm the existence of the A-V canal and to determine if some emergent cardiac surgery was needed, they were receiving maximal medical and ventilatory life support and remained dangerously hypoxemic. Under these circumstances, we were granted consent to treat the patient with nitric oxide.
Upon arrival to the catheterization laboratory, the patient was extremely cyanotic. They were treated with fentanyl, oxygen, hyperventilation and intravenous fluid boluses to stabilize them prior to administering NO.
We utilized a regulator to step-down the pressure of the NO into a blender, which allowed us to adjust the relative amounts of the 800 ppm NO/N2 and 100% N2 supplies. Treating the patient with pure oxygen, we increased the flow of N2 through a flow regulator into the inspiratory circuit of the breathing cicuit until the FI O2 was 0.9. This provided a 1:10 dilution of the nitrogen gas. We then used the blender to adjust the relative amounts of N2 and […] to provide 0 to 80 ppm of NO.

[1] = NO 80 ppm, restarted after OFF #1

[N]=O [NO, nitric oxide]
arterial saturation, pulse oximetry values and arterial partial pressure of oxygen (NO 20-80 ppm): modest increase in arterial saturation, pulse oximetry values, and arterial partial pressure of oxygen
effect on systemic blood pressure (NO 20-80 ppm): no adverse effect on systemic blood pressure
O2 SAT, PA (NO 20 ppm): 70%
O2 SAT, POX (pulse oximeter), postductal (NO 20 ppm): 91%
O2 SAT, RA (NO 20 ppm): 67%
O2 SAT, postductal ART (NO 20 ppm): 85%
mean pressure, ART (NO 20 ppm): 45 mmHg
mean pressure, PA (NO 20 ppm): 50 mmHg
mean pressure, RA (NO 20 ppm): 5 mmHg
postductal arterial PO2, ART (NO 20 ppm): 46 mmHg
O2 SAT, PA (NO 40 ppm): 74%
O2 SAT, POX (pulse oximeter), postductal (NO 40 ppm): 93%
O2 SAT, RA (NO 40 ppm): 72%
O2 SAT, postductal ART (NO 40 ppm): 74%
mean pressure, ART (NO 40 ppm): 43 mmHg
mean pressure, PA (NO 40 ppm): 52 mmHg
mean pressure, RA (NO 40 ppm): 4 mmHg
postductal arterial PO2, ART (NO 40 ppm): 50 mmHg
O2 SAT, PA (NO 80 ppm): 75%
O2 SAT, RA (NO 80 ppm): 74%
mean pressure, ART (NO 80 ppm): 47 mmHg
mean pressure, PA (NO 80 ppm): 53 mmHg
mean pressure, RA (NO 80 ppm): 5 mmHg
O2 SAT, POX (pulse oximeter), postductal (NO 80 ppm, first): 94%
O2 SAT, postductal ART (NO 80 ppm, first): 88%
postductal arterial PO2, ART (NO 80 ppm, first): 51 mmHg
O2 SAT, POX (pulse oximeter), postductal [1]: 90%
O2 SAT, postductal ART [1]: 85%
postductal arterial PO2, ART [1]: 48 mmHg
arterial saturation and oxygen gas tension on discontinuation (after nitric oxide was discontinued): precipitously dropped
oxygen saturation and blood gas tension on restart (nitric oxide restarted): succeeded in improving the oxygen saturation and blood gas tension
gas exchange (pulmonary hypertension and congenital heart disease): improving gas exchange
oxygenation level on second weaning (subsequent attempt to wean off nitric oxide): deteriorated to dangerously low levels
